± gives the expanded uncertainty stated by the source.
Assay: molar heat capacity at constant pressure
Conditions: Liquid, Flow calorimetry

With `CC(C)CCCC(C)CCCC(C)CCCCC(C)CCCC(C)CCCC(C)C` (stereo not drawn) [2,6,10,15,19,23-hexamethyltetracosane] the “molar heat capacity at constant pressure” value (293.15 K, 100 kPa) was 879 ± 8.9 J/K/mol, the “molar heat capacity at constant pressure” value (293.15 K, 10000 kPa) was 873.5 ± 8.8 J/K/mol and the “molar heat capacity at constant pressure” value (293.15 K, 20000 kPa) was 868.5 ± 8.8 J/K/mol. The “molar heat capacity at constant pressure” value (293.15 K, 30000 kPa) was 865.5 ± 8.7 J/K/mol, the “molar heat capacity at constant pressure” value (313.15 K, 100 kPa) was 904.4 ± 9.1 J/K/mol and the “molar heat capacity at constant pressure” value (313.15 K, 10000 kPa) was 898.9 ± 9.1 J/K/mol. The “molar heat capacity at constant pressure” value (313.15 K, 20000 kPa) was 896.4 ± 9.1 J/K/mol, the “molar heat capacity at constant pressure” value (313.15 K, 30000 kPa) was 893.4 ± 9 J/K/mol and the “molar heat capacity at constant pressure” value (333.15 K, 100 kPa) was 943.3 ± 9.5 J/K/mol. The “molar heat capacity at constant pressure” value (333.15 K, 10000 kPa) was 940.8 ± 9.5 J/K/mol, the “molar heat capacity at constant pressure” value (333.15 K, 20000 kPa) was 936.1 ± 9.5 J/K/mol and the “molar heat capacity at constant pressure” value (333.15 K, 30000 kPa) was 929.3 ± 9.4 J/K/mol. For the same compound, the “molar heat capacity at constant pressure” value (353.15 K, 100 kPa) was 978.8 ± 9.9 J/K/mol, the “molar heat capacity at constant pressure” value (353.15 K, 10000 kPa) was 973.7 ± 9.8 J/K/mol and the “molar heat capacity at constant pressure” value (353.15 K, 20000 kPa) was 963.2 ± 9.7 J/K/mol. The “molar heat capacity at constant pressure” value (353.15 K, 30000 kPa) was 959.8 ± 9.7 J/K/mol.
For `CCCCC(CC)COC(=O)c1ccccc1C(=O)OCC(CC)CCCC` (stereo not drawn) [bis(2-ethylhexyl) 1,2-benzenedicarboxylate], the “molar heat capacity at constant pressure” value (293.15 K, 100 kPa) was 703 ± 7.1 J/K/mol, the “molar heat capacity at constant pressure” value (293.15 K, 10000 kPa) was 701.5 ± 7.1 J/K/mol and the “molar heat capacity at constant pressure” value (293.15 K, 20000 kPa) was 699.9 ± 7.1 J/K/mol. For the same compound, the “molar heat capacity at constant pressure” value (293.15 K, 30000 kPa) was 699.6 ± 7.1 J/K/mol, the “molar heat capacity at constant pressure” value (313.15 K, 100 kPa) was 726.9 ± 7.3 J/K/mol and the “molar heat capacity at constant pressure” value (313.15 K, 10000 kPa) was 724.9 ± 7.3 J/K/mol. For the same compound, the “molar heat capacity at constant pressure” value (313.15 K, 20000 kPa) was 723 ± 7.3 J/K/mol, the “molar heat capacity at constant pressure” value (313.15 K, 30000 kPa) was 722 ± 7.3 J/K/mol and the “molar heat capacity at constant pressure” value (333.15 K, 100 kPa) was 751.3 ± 7.6 J/K/mol. For the same compound, the “molar heat capacity at constant pressure” value (333.15 K, 10000 kPa) was 750 ± 7.6 J/K/mol, the “molar heat capacity at constant pressure” value (333.15 K, 20000 kPa) was 747.5 ± 7.6 J/K/mol and the “molar heat capacity at constant pressure” value (333.15 K, 30000 kPa) was 746 ± 7.5 J/K/mol. For the same compound, the “molar heat capacity at constant pressure” value (353.15 K, 100 kPa) was 774.5 ± 7.8 J/K/mol, the “molar heat capacity at constant pressure” value (353.15 K, 10000 kPa) was 770.5 ± 7.8 J/K/mol and the “molar heat capacity at constant pressure” value (353.15 K, 20000 kPa) was 767.9 ± 7.8 J/K/mol. For the same compound, the “molar heat capacity at constant pressure” value (353.15 K, 30000 kPa) was 763.4 ± 7.7 J/K/mol.
With `CCCCC(CC)COC(=O)CCCCCCCCC(=O)OCC(CC)CCCC` (stereo not drawn) [bis(2-ethylhexyl) decanedioate] the “molar heat capacity at constant pressure” value (293.15 K, 100 kPa) was 810.3 ± 8.2 J/K/mol, the “molar heat capacity at constant pressure” value (293.15 K, 10000 kPa) was 808.5 ± 8.2 J/K/mol and the “molar heat capacity at constant pressure” value (293.15 K, 20000 kPa) was 805.6 ± 8.1 J/K/mol. For the same compound, the “molar heat capacity at constant pressure” value (293.15 K, 30000 kPa) was 803 ± 8.1 J/K/mol, the “molar heat capacity at constant pressure” value (313.15 K, 100 kPa) was 846.5 ± 8.6 J/K/mol and the “molar heat capacity at constant pressure” value (313.15 K, 10000 kPa) was 843.5 ± 8.5 J/K/mol. For the same compound, the “molar heat capacity at constant pressure” value (313.15 K, 20000 kPa) was 840.1 ± 8.5 J/K/mol, the “molar heat capacity at constant pressure” value (313.15 K, 30000 kPa) was 838.4 ± 8.5 J/K/mol and the “molar heat capacity at constant pressure” value (333.15 K, 100 kPa) was 878.1 ± 8.9 J/K/mol. For the same compound, the “molar heat capacity at constant pressure” value (333.15 K, 10000 kPa) was 875.5 ± 8.8 J/K/mol, the “molar heat capacity at constant pressure” value (333.15 K, 20000 kPa) was 873.4 ± 8.8 J/K/mol and the “molar heat capacity at constant pressure” value (333.15 K, 30000 kPa) was 871.7 ± 8.8 J/K/mol. For the same compound, the “molar heat capacity at constant pressure” value (353.15 K, 100 kPa) was 910.9 ± 9.2 J/K/mol, the “molar heat capacity at constant pressure” value (353.15 K, 10000 kPa) was 909.7 ± 9.2 J/K/mol and the “molar heat capacity at constant pressure” value (353.15 K, 20000 kPa) was 907.1 ± 9.2 J/K/mol. For the same compound, the “molar heat capacity at constant pressure” value (353.15 K, 30000 kPa) was 906.3 ± 9.2 J/K/mol.

— the NIST ThermoML archive (doi:10.1016/j.jct.2012.01.011)
